Legend:
[1] = tested on: panel of 219 recombinant kinases; test: Broad in vitro selectivity kinase profiling; type: biochemical; conditions: 1 μM LDC526, 219 kinases
Method: IC50 values for CDK inhibitors were determined using the fluorescence resonance energy transfer (FRET)-based LANCE Ultra KinaSelect Ser/Thr kit (Perkin Elmer). Kinase activity and inhibition were measured according to the manufacturer’s instructions and as previously described. […] Subsequently, phosporylation was detected by addition of specific europium (Eu)-labeled anti-phospho-antibodies (2 nM), which upon binding to the phospho-peptide give rise to a FRET signal. FRET signals were recorded in a time-resolved manner in a Perkin Elmer EnVision reader. Purified cyclin-kinase pairs were obtained from the following suppliers: Carna Biosciences (CDK1-Cyclin B1, CDK6-Cyclin D3, CDK7-Cyclin H-MAT1), ProQinase (CDK2-Cyclin A) and Invitrogen (CDK9-Cyclin T1). Broad selectivity kinase in vitro profiling with LDC526 was carried out using n=219 recombinant kinases (Millipore/Merck, Darmstadt, Germany).

[2] = tested on: blood and splenic leukocytes of wild-type mice; test: Wild-type littermate control mice, oral LDC526, blood and spleen analysis; type: in vivo
From the text: Another widely used preclinical CLL model are TCL1 transgenic mice. The TCL1 transgenics represent a constitutive CLL model not involving the adoptive transfer of cells. This model mirrors the natural course of human IgVH-unmutated CLL including its disease progression. In addition, this model has also been widely used by others to test novel therapeutic molecules. […] Consecutive blood sampling allowed us to carry out a longitudinal study in individual TCL1 and control mice. For this, we chose a cohort of TCL1 and littermate control mice, which were 9-12 months old (Figure 5A). We chose TCL1 transgenics with high peripheral CLL cell (CD19+CD5+) counts (14.6±7.4/nl, mean±SEM). Given the presumably high leukemic burden in these aged TCL1 mice and the reduced general condition of some NSG mice receiving 75 mg/kg for 5 days we decided to dose TCL1 mice with 50 mg/kg daily for two consecutive days (Figure 5A). As the experiment was longitudinally designed and there was no effect expected of administering carrier to wild-type control mice we omitted this control group and established three experimental groups (Figure 5A). In order to minimize stress by collecting blood specimens we sampled blood three times, 8 days apart (days -5, +3 and +11; Figure 5A). Compared to blood smears prepared before commencing LDC526 treatment a marked decrease of peripheral blood leukocytes and CLL cells was observed two days post the last LDC526 administration to TCL1 transgenic mice (Figure 5B). In contrast to the carrier control treated TCL1 mice, white blood cell counts (WBC) dropped in LDC526-treated wild-type and TCL1 mice (Figure 5C). In comparison to wild-type control mice, where WBC dropped to 34% of baseline values, the WBC decrease in TCL1 mice was more dramatic dropping to 8% of baseline values (Figure 5D).
On day +11 (Figure 5A) the experiment was terminated as planned and spleens of the experimental mice were harvested. To be able to assess the impact of LDC526 on wild-type spleens we included n=3 of non-treated age-matched wild-type littermate mice as an additional experimental control group in the final spleen analysis. A caveat of this final spleen analysis posed the fact that in contrast to the longitudinal blood analysis, baseline spleen data of individual aged TCL1 mice were not available. As longitudinal analysis was not possible, we now compared spleen parameters between cohorts. Importantly, it is unknown to which extent the amount of circulating peripheral blood TCL1 CLL cells determined at baseline correlates with splenomegaly. […]
All mice were bred and housed at the University Hospital Essen animal care facility. […] Peripheral blood counts were determined with the VetABC analyzer (scil, Viernheim, Germany). […]

COc1cc(F)ccc1-c1ncnc(Nc2cccc(CS(N)(=O)=O)c2)n1 [LDC526, (3-((4-(4-fluoro-2-methoxyphenyl)-1,3,5-triazin-2-yl)amino)phenyl)methane-sulfonamide]
share of tested kinases still displaying an activity of greater than 80% [1]: More than 85% | WBC, percent of baseline values ([2]; 50 mg/kg daily for two days, day +3): 34% | concentration of wild-type blood T cells ([2]; 50 mg/kg for two days): halved | splenic B cell numbers, percent of untreated mice ([2]; day +11): 31% | B cells, percent of baseline levels ([2]; peripheral blood): 3.7%
